This data set in a line: wn = mass fraction of the nth substance listed. As to conditions: 297.15 K, 100 kPa, Liquid, Alternating current cell with electrodes.

Several values for one entry are separate records, joined by “and”; a condition that tells them apart may be missing. Equal values may be shown once. Numbers after ± are expanded uncertainties.

Turning to `CC(=O)[O-].[NH4+]` [ammonium acetate] + O, under “w1 = 0.047”, the electrical conductivity is 0.0479 ± 0.004 S/m.
For the compound `CCC(C)O` (stereo not given) [butan-2-ol] + O, where the note is “w1 = 0.097”, the electrical conductivity worked out at 0.0001 S/m.
For the compound `CC(=O)[O-].[K+]` [potassium ethanoate] + O, the electrical conductivity (w1 = 0.047) was 0.0484 S/m and 0.0479 S/m.
As to `CC(C)O` [propan-2-ol] + O, the electrical conductivity (w1 = 0.097) is 0.0001 S/m.
Turning to `CC(=O)[O-].[Na+]` [sodium ethanoate] + O, the electrical conductivity (w1 = 0.047) was 0.0438 S/m and 0.0441 S/m.

(Values after the NIST ThermoML archive (doi:10.1021/acs.jced.5b00200).)
